Results taken from patent US9593146B2, “CD44v6-derived peptides for treating metastasizing cancer” (AMCURE GMBH, priority 2012, dated 2017).
Residues, ends and D or L forms follow the SMILES beside them. No end group written: not given here. *: point of attachment. PEG2000 = polyethylene glycol with a molecular weight of 2000 Da; DOTA = O=C(O)CN1CCN(CC(=O)O)CCN(CC(=O)*)CCN(CC(=O)O)CC1; Myristoyl = CCCCCCCCCCCCCC(=O)*

Assays:
L3.6pl cells = assay: Human orthotopic model of pancreatic cancer, L3.6pl cells in nude mice; format: in vivo; conditions: for metastatic spreading to the liver (side-by-side comparison): 20 μg per injection three times per week for 3 weeks (FIG. 24); for reduction of tumor size, ranking (side-by-side comparison): 20 μg per injection three times per week for 3 weeks (FIG. 23A); for variability in the individual tumor size within the group: 20 μg per injection three times per week for 3 weeks (FIG. 23B); for tumor growth compared to the control peptide (side-by-side comparison): 20 μg per injection three times per week for 3 weeks, 5 animals per group
Description: In the case of the human orthotopic model, L3.6pl pancreatic carcinoma cells (passage 24-26) were suspended in Hank's balanced salt solution (Invitrogen, Karlsruhe, Germany) after trypsinization. The cells were injected orthotopically in the pancreas of male nude mice as described (Bruns C J et al. (1999) Neoplasia 1(1):50-62). Two groups of 15 mice each were injected i.p. 7 days later with either the human v6 peptide respectively rat control peptide (20 μg). For all experiments described and depicted herein either the rat 14mer control peptide or the human 14mer peptide were used. All experiments were then repeated with the rat 5mer control peptide or the human 5mer peptide (N-R-W-H-E, SEQ ID NO: 2). […] The injection was repeated three times per week for 21 days. Two days after the last treatment the animals were killed. […]
A comparison of different CD44v6 peptide derivatives was performed in animals bearing a orthotopic L3.6pl tumor. 10 groups of 5 animals each received a dose of 20 μg peptide per injection three times per week for 3 weeks with the compounds listed in Table 4. Three weeks after starting the treatment the animals were sacrificed and analyzed for macroscopic metastases and tumor volume.

HT29 cells = assay: HGF induced scattering of HT29 cells; format: cell-based, human
Description: FIG. 17: The human CD44 v6 specific peptides block HGF induced cell scattering and invasion into matrigel. Scattering of HT29 cells was determined in 24-well plates. First, 4.5×10^4 cells were seeded at 37° C.; after 24 h the cells were serum starved for additional 24 h. the cells were either left untreated (control) or later treated with HGF (50 ng/ml) for 24 h. Where indicated the cells were treated with the v6 specific peptide (human v6 5mer, 10mer, 14mer) or control peptide prior to induction with HGF for 30 min. Pictures were made using phase contrast microscopy. Magnification 40×.
A scatter assay was performed additionally. HT29 colon cancer cells were grown in medium containing 10% FCS. One day after seeding, the cells were starved. On the third day, the cells were induced with HGF (10 ng/ml) and pre-incubated with either no peptide, ctrl-peptides (SEQ ID No.: 15), non-pegylated v6-peptides (SEQ ID No.: 11) or the pegylated peptides, namely PEG-rat control peptide and PEG-rat CD44v6 peptide.
Scattering of HT29 cells was determined in 24-well plates. First, 4×10^5 cells were seeded at 37° C.; the cells were either left untreated or 48 h later treated with HGF (50 ng/ml) for 24 h or with PEGylated or non-PEGylated peptides (100 ng/ml) prior to HGF induction for 30 min.

Met and ERK = assay: HGF induced activation of Met and Erk in BSp73ASs6 cells (Western blot); format: cell-based, rat; conditions: ASs6 cells, peptides with 2000 dalton PEG-chain, 150 nM 10 min before HGF 10 ng/ml (FIG. 10)
Description: Serum-starved cells (24 hours) were induced with the growth factor HGF (10 ng/mL) at 37° C. for 5 minutes. Where indicated, the cells were treated with peptides (100 ng/ml) prior to induction at 37° C. for 10 minutes (100 ng/mL CD44v6 peptide or control peptide). Following the induction with HGF, cells were washed with ice-cold phosphate-buffered saline (PBS). To detect activated Met and Erk, cells were lysed in sodium dodecyl sulfate (SDS)-sample buffer containing 100 mM dithiothreitol (DTT), boiled and subjected to western blot analysis using antibodies against phospho-Met and ERK. The loading controls were performed on the same blot after stripping (62.5 mM Tris, pH 6.8, 2% SDS, 0.8% DTT) by probing with the Met respectively ERK antibody. Blots were stained using the enhanced chemiluminescence system (Thermo Fisher Scientific, Schwerte, Germany). Bands in western blot analysis were quantified with the program Image J (National Institutes of Health).
Rat pancreatic cancer cells BSp73ASs6 (also designated Ass6) were incubated for 10 min at 37° C. with either ctrl-peptides (SEQ ID No.: 15), non-pegylated v6-peptides (SEQ ID No.: 11) and increasing concentrations of the pegylated peptides, namely PEG-rat control peptide and PEG-rat CD44v6 peptide, before induction with HGF (10 ng/ml; 5 min at 37° C.).
Activation of ERK and Met was determined by standard SDS and Western Blotting techniques using a phospho-Met and phospho-Erk specific antibody (phospho-Met clone D16 cell signaling, phospho-Erk p42/44 cell signaling)
ASs6 cells, serum starved for 24 h, were induced with HGF (10 ng/ml) at 37° C. for 5 min. Where indicated, the cells were treated with PEGylated or non-PEGylated peptides before induction at 37° C. for 10 min (150 nM). Cells were washed with phosphate-buffered saline (PBS) and lysed in boiling sodium dodecyl sulfate (SDS)-sample buffer containing 100 mM dithiothreitol (DTT). Subsequently, lysates were subjected to Western blot analysis using antibodies against phosphorylated Mek and Erk (Cell signaling). The Mek and Erk loading control were performed on the same blot, stripped (62.5 mM Tris pH 6.8, 2% SDS, 0.8% DTT) and probed with the Mek and Erk antibodies. Blots were stained using the enhanced chemiluminescence system (Thermo Fisher Scientific).

BSp73ASs6 cells [1] = assay: Rat syngeneic model, subcutaneous BSp73ASs6 tumor, metastasis formation; format: in vivo; conditions: 200 μg per injection, intra-tumoral or intravenously three times a week, start after one week of tumor growth
Description: In the case of the rat syngeneic model, 1×10^6 pancreatic cells (BSp73AS and its transfectants) were subcutaneously injected into the right posterior flank of the animals. Tumors developed for four weeks. During this time period animals injected with BSp73ASs6 cells expressing Met-shRNA or control-shRNA received doxycycline in the drinking water. At the end of the experiment, primary tumors were isolated. Lungs and axillary lymph nodes were analyzed. The tissues were incubated for 24 h in a zinc-fixative (0.5 g calcium acetate, 5.0 g zinc acetate, 5.0 g zinc chloride, in 1 L 0.1 M Tris pH 7.4) and embedded in paraffin for further analysis. In case of peptide or antibody treatment tumors developed for one week before the first treatment. Where indicated, animals received 200 μg of peptide or antibody per injection three times per week for four weeks. Tumor growth was monitored weekly using a caliper. Animals were killed at day 28 or 30 after start of the treatment.
For histo-morphological analysis paraffin-embedded sections of lungs were stained with hematoxylin and eosin and periodic acid-Schiff (H&E or PAS). Serial sections of the whole tissue blocks were examined by analyzing slices every 20 μm; in each slice, the presence and the extension of the metastatic deposit was assessed, according to the procedure routinely used by pathologists to evaluate the presence of micro-metastases.

BSp73ASs6 cells [2] = assay: Apoptosis in established lung metastases (cleaved Caspase-3, cleaved Caspase-8), BSp73ASs6 rat model; format: in vivo; conditions: injection every second day
Description: 7 μm thick paraffin sections were deparaffinized and rehydrated. For P-Met staining antigen unmasking was achieved by boiling the slides in 1 mM EDTA pH 8.0 followed by incubation for 15 minutes at a sub-boiling temperature, for CD31 staining the sections were treated with Proteinase K (8 μg/ml) for 10 min at 37° C. For immunofluorescence staining of P-Met, unspecific binding was blocked with 5% goat serum (DAKO, Glostrup, Denmark) (diluted in 1×PBS/0.3% Triton X-100) for 60 minutes. In the case of immunohistochemistry, endogenous peroxidases were at first blocked with 3% H2O2 in PBS followed by incubation with biotin blocking system (Dako, Glostrup, Denmark) and then unspecific binding was inhibited by incubation with 5% FCS in PBS. The sections were incubated with the P-Met antibody (D26, dilution 1:50 in 1×PBS/1% BSA/0.3% Triton X-100), Met antibody (C-28, dilution 1:50), GFP antibody (sc-101525, dilution 1:50) or CD31 antibody (5 μg/ml) over night or VFF18 (5 μg/ml) o/n at 4° C. After washing in PBS the sections were incubated with Alexa Fluor R 546 goat anti-rabbit (in case of immunofluorescence P-Met and Met staining, dilution 1:500) or a biotinylated secondary antibody (for immunohistochemical stainings rabbit anti-rat antibody for VFF18 and CD31, goat anti-rabbit for P-Met, cleaved Caspase-3 and cleaved Caspase-8 and rabbit anti-mouse for GFP, dilution 1:500) for 45 minutes. For DAB (3,3′-diaminobenzidine) staining the sections were treated with a streptavidin-peroxidase conjugate (Dako, Glostrup, Denmark) and developed with DAB substrate system (3,3′-diaminobenzidine; Biozol, Eching, Germany). For immunofluorescence DAPI was used for nuclear staining.
One hypothesis for the disappearance of metastases is that the peptides induce apoptosis of CD44v6-expressing metastatic cells in the secondary organs. In order to test this hypothesis, the experiment described above using the BSp73ASs6 cells was repeated. The cells were injected subcutaneously in syngeneic rats and the tumor was allowed to develop for three weeks. After that time the animals were separated in two groups of 10 animals that were injected either with the specific rat CD44v6 peptide or with the control peptide (mouse) every second day. One day following each injection of the peptide, the lungs of one animal were removed and apoptosis was measured using an antibody that detects the cleaved form of Caspase 3. […] Twelve days after injection of the CD44v6 peptide, less apoptosis was observed. […] From these experiments, it is concluded that the CD44v6 peptide induces apoptosis of metastatic cells.

N=C(N)NCCC[C@H](NC(=O)[C@@H](N)CC(N)=O)C(=O)N[C@@H](Cc1c[nH]c2ccccc12)C(=O)N[C@@H](Cc1c[nH]cn1)C(=O)N[C@@H](CCC(=O)O)C(=O)O [human 5mer, NRWHE] (H-NRWHE-OH; N-terminus and C-terminus assumed) was tested, and the “side effects in the animals” value (L3.6pl cells; 200 μg per injection i.p. three times per week) was “did not lead to side effects in the animals”.

“DOTA-KEQWFGNRWHEGYR ({DOTA}-KEQWFGNRWHEGYR; not fully specified (residue 14)) [DOTA CD44v6-14 [r^14]]” was tested, and the “metastatic spreading to the liver (side-by-side comparison)” value (from here on “metastatic spreading to the liver”) (L3.6pl cells) was “complete inhibition of metastasis”.

For DOTA-cy[KRWHE] [cycl 5 mer], the “reduction of tumor size, ranking (side-by-side comparison)” value (from here on “reduction of tumor size, ranking”) (L3.6pl cells) was “strongest reduction of tumor size”, the “variability in the individual tumor size within the group” value (“variability” for short) (L3.6pl cells) was “low variability” and the “metastatic spreading to the liver” value (L3.6pl cells) was “complete inhibition of metastasis”.

With “DOTA-keqwfGNRWHEGyr [DOTA CD44v6-14 [daa7]]” the “metastatic spreading to the liver” value (L3.6pl cells) was “decrease of metastatic spreading”.

“Myr-KEQWFGNRWHEGYR (Myristoyl-KEQWFGNRWHEGYR) [Myristoyl-14-mer]” was tested, and the “tumor growth compared to the control peptide (side-by-side comparison)” value (L3.6pl cells) was “no inhibitory effect on tumor growth”.

For “Myr-Y-cy[KGNRWHEG] (Myristoyl-YKGNRWHEG; not fully specified (bridges); printed as Myr-Y-cy[KGNRWHEG]; also: cyclic, ring closure not given here) [Myr-Y-cycl 8 mer]”, the “metastatic spreading to the liver” value (L3.6pl cells) was “decrease of metastatic spreading”.

“NAAAG [ctrl-peptides, reference compound]” was tested, and the “HGF induced clustering / scattering of HT29 cells (FIG. 11)” value (HT29 cells; HGF 10 ng/ml, peptide pre-incubation (Example 2)) was “not control peptides lead to dissociation and migration”.

With “PEG840-KEQWFGNRWHEGYR-OH [PEG840 14-mer]” the “metastatic spreading to the liver” value (L3.6pl cells) was “decrease of metastatic spreading” and the “tumor growth compared to the control peptide (side-by-side comparison)” value (L3.6pl cells) was “significant reduction in tumor growth”.

For “PEG2000-KEQWFGNRWHEGYR-OH [PEG2000 14-mer]”, the “reduction of tumor size, ranking” value (L3.6pl cells) was “strongest reduction of tumor size”, the “variability” value (L3.6pl cells) was “low variability” and the “metastatic spreading to the liver” value (L3.6pl cells) was “decrease of metastatic spreading”. For the same compound, the “tumor growth compared to the control peptide (side-by-side comparison)” value (L3.6pl cells) was “significant reduction in tumor growth”.

For “PEG-NAAAG [PEG-control peptide, pegylated control peptide, 3 essential aa replaced by alanines, reference compound]”, the “HGF induced Met-phosphorylation and Erk signaling” value (Met and ERK) was “showed no effect” and the “HGF induced scattering of HT29 cells” value (HT29 cells; PEGylated peptides 100 ng/ml prior to HGF 50 ng/ml (Example 5, FIG. 11)) was “not with PEGylated control peptides”.

For “cy[KGNRWHEG] (not fully specified (bridges); printed as cy[KGNRWHEG]; also: cyclic, ring closure not given here) [cycl. 8 mer]”, the “reduction of tumor size, ranking” value (L3.6pl cells) was “strongest reduction of tumor size”, the “variability” value (L3.6pl cells) was “low variability” and the “metastatic spreading to the liver” value (L3.6pl cells) was “complete inhibition of metastasis”. The “metastatic spreading at 2 and 20 μg per injection” value (L3.6pl cells; 2 and 20 μg per injection, three times per week) was “blocked metastatic spreading” and the “size / growth of the primary tumor (dose reduction study)” value (L3.6pl cells; three injections per week for 3 weeks, compared to control groups (FIG. 22C)) was “drastic effect on growth of the primary tumor”.

“mouse control peptides: mouse CD44v6 peptide used as control in the rat syngeneic model (WFQNGWQGKNP) [reference compound]” was tested, and the “metastasis (axillary lymph nodes, lungs)” value (BSp73ASs6 cells [1]) was “numerous metastases were detected in the lungs”, the “apoptosis (cleaved Caspase 3) in lung metastases” value (BSp73ASs6 cells [2]) was “No apoptosis at all was detected” and the “lung metastasis at day twenty-two” value (BSp73ASs6 cells [2]) was “metastatic spreading was evident in the lungs”.
